Assays:
[1] = tested on: houseflies (Musca domestica); test: Biological Test 17: topical application of compound (2) with piperonyl butoxide, mortality; type: in vivo; settings: after 24 hours
Method: The combination rate of piperonyl butoxide to the present compound was 0, 2, 4, 8 and 16 times. The mixture was dissolved in acetone. The acetone solution (0.5 μL) was applied to 10 female houseflies (Musca domestica) at the back thoracic region. After 24 hours, the number of dead insects was observed (2 repetition) and mortality was calculated.

[2] = tested on: houseflies (Musca domestica); test: Biological Test 4: mortality of female houseflies low sensitive to pyrethroids, treated filter paper; type: in vivo; settings: 24 h
Method: (§1) Filter paper of 5.5 cm in diameter was laid in the bottom of a polyethylene cup (diameter: 5.5 cm). After 0.7 ml of a 500 ppm aqueous emulsion obtained by diluting each emulsifiable concentrate prepared according to the formulation example 1 was dropped on the filter paper and approximately 30 mg of sucrose as bait was uniformly scattered. Ten female houseflies (Musca domestica), which were low sensitive to pyrethroids, were left in the cup with a cover. After one day, the mortality was examined.

[3] = tested on: webbing clothes moth (Tineola bisselliella); test: Biological Test 13: volatile agent in cup, mortality and fabric damage; type: in vivo; settings: volatile agent (100 μg on filter paper), 950 cm^3 cup, 25° C., 1 week; for mortality: 10080 min
Method: A wool muslin fabric (2 cm×2 cm in size) was placed on the bottom of a polyethylene cup (bottom diameter: 10 cm, opening part diameter: 12.5 cm, height: 9.5 cm, volume: 950 cm^3). Ten middle instar larvae of webbing clothes moth (Tineola bisselliella) were put in the cup and each of the volatile agents prepared according to the formulation example 14 was hung from the cap in the interior of the cup. After standing at 25° C. for 1 week, the cup was opened, and the mortality and the degree of damage of the wool muslin fabric by the moths were examined (two replicate).

[4] = tested on: common mosquitoes (Culex pipiens pallens); test: Biological Test 6: mortality of last-instar mosquito larvae in water; type: in vivo; settings: 24 h, read-out: mortality of the common mosquitoes
Method: 0.7 ml of aqueous emulsion, obtained by diluting emulsifiable concentrate prepared for each of the present compounds according to the formulation example 1, was added to 100 ml of ion-exchanged water (concentration of active ingredient: 3.5 ppm). Twenty last-instar larvae of common mosquitoes (Culex pipiens pallens) were left in the water. After one day, the mortality of the common mosquitoes was examined.

[5] = tested on: southern corn rootworm (Diabrotica undecimpunctata howardi); test: Biological Test 3: mortality of hatched larvae and eggs; type: in vivo; settings: 192 h, read-out: mortality of the hatched larvae and eggs
Source text: Filter paper of 5.5 cm in diameter was laid in the bottom of a polyethylene cup (diameter: 5.5 cm). […] After 8 days, the mortality of the hatched larvae and eggs was examined.

[6] = tested on: brown planthopper (Nilaparvata lugens); test: Biological Test 2: mortality of larvae on dipped rice plant stalk; type: in vivo; settings: 144 h, read-out: mortality of the larvae
Method: A stalk of a rice plant was dipped for one minute in a 500 ppm aqueous emulsion obtained by diluting each emulsifiable concentrate of the present compounds prepared according to the formulation example 1. The rice plant stalk was air-dried and placed in a polyethylene cup (diameter: 5.5 cm) where filter paper (diameter: 5.5 cm) impregnated with 1 ml of water was put. Approximately 30 larvae of brown planthopper (Nilaparvata lugens) were put in the polyethylene cup. After 6 days, the mortality of the larvae was examined.

[7] = tested on: German cockroaches (Blattella germanica); test: Biological Test 5: mortality of male German cockroaches low sensitive to pyrethroids, treated filter paper; type: in vivo; settings: 144 h
Method: as §1, with “Two male German cockroaches (Blattella germanica),” for “Ten female houseflies (Musca domestica),”, “six days,” for “one day,”

[8] = tested on: webbing clothes moth (Tineola bisselliella); test: Biological Test 12: topical application to larvae of webbing clothes moth, mortality and fabric damage; type: in vivo; settings: for degree of damage of the wool muslin fabric: 3 μg/insect, after 7 days; for mortality at 0.003 mg: Tineola bisselliella, 168 h
Method: Each of the present compounds diluted with acetone to a predetermined concentration was applied to ten middle instar larvae of webbing clothes moth (Tineola bisselliella) at the central part of the back so as to give the active ingredient in a dose of 3 μg/insect. A wool muslin fabric (2 cm×2 cm in size) was given to the webbing clothes moths as the food. After 7 days, the mortality and the degree of damage of the wool muslin fabric by the moths were examined (two replicate).

[9] = tested on: webbing clothes moth (Tineola bisselliella); test: Biological Test 14: treated filter paper in cardboard box, percent moribund, fabric damage and persistence; type: in vivo; settings: 36 mg on filter paper
Method: A filter paper (3.2 cm×3.2 cm in size) treated with 36 mg of each of the present compounds and two wool muslin fabrics (25 cm×25 cm in size) were hung down at the upper part of a corrugated cardboard box (29 cm×29 cm×29 cm in size). After standing at 25° C. and a humidity of 60% for 1 week, two tea-strainer balls holding 7 to 10 middle instar larvae of webbing clothes moth (Tineola bisselliella) and one piece of wool muslin cloth (2 cm×2 cm in size) were hung down at the upper part of the box. The box was closed with a lid. After one week, the box was opened, and the percent moribund and the degree of damage of the wool muslin cloth by the moths were examined. The same tests was repeated 2 weeks, 3 weeks and 5 weeks after the treatment to examine the persistance of the present compound. The degree of damage was represented by "-" in no damage, "+" in slight damage, "++" in heavy damage and "+++" in severe damage.

[10] = tested on: common mosquitoes (Culex pipiens pallens); test: Biological Test 7: knock-down of mosquitoes by sprayed oil solution; type: in vivo; settings: 0.7 ml of 0.1% oil solution sprayed in 0.34 m^3 chamber; after 15 minutes
Method: Ten female common mosquitoes (Culex pipiens pallens) were left in a glass chamber (70 cm×70 cm×70 cm: 0.34 m^3). 0.7 ml of 0.1% oil solution prepared for each of the present compounds according to the formulation example 7 was sprayed with a spray gun at 0.8 atmospheric pressure. After 15 minutes, the rate of knocked-down mosquitoes was examined.

[11] = tested on: common mosquitoes (Culex pipiens pallens); test: Biological Test 11: mosquitoes in cup over treated aluminum plate without direct contact, mortality; type: in vivo; settings: 24 h
Method: After 0.64 ml of a 0.05 (w/v) % acetone solution of the present compounds was dropped into an aluminum plate (bottom diameter: 7 cm), acetone was air-dried. Ten female common mosquitoes (Culex pipiens pallens) were left in a polyethylene cup (diameter: 9 cm; depth: 4.5 cm) and the cup was sealed with a 16-mesh nylon net to prevent direct contact of the mosquitoes with the compound. The cup was placed upside down on the aluminum plate at 25° C. for 120 minutes. The cup was then removed from the aluminum plate, and water and feed were given to the mosquitoes. After 24 hours, the mortality was examined (two replicate).

[12] = tested on: common mosquitoes (Culex pipiens pallens); test: Biological Test 8: knock-down of mosquitoes by mosquito-coil; type: in vivo; settings: 1.0 g of 0.3% mosquito-coil in 0.34 m^3 chamber; after 15 minutes
Method: Mosquito-coil containing the present compound in an amount of 0.3% was prepared according to the formulation example 10 for the present compounds. Ten female common mosquitoes (Culex pipiens pallens) were left in a glass chamber (70 cm×70 cm×70 cm: 0.34 m^3) and 1.0 g of 0.3% mosquito-coil having both ends lit was placed in the glass chamber. After 15 minutes, the rate of knocked-down mosquitoes was examined.

[13] = tested on: tobacco cutworm (Spodoptera litura); test: Biological Test 1: mortality of larvae on impregnated artificial bait; type: in vivo; settings: 144 h, read-out: mortality of the larvae
Method: Emulsifiable concentrates were prepared for each of the present compounds according to the formulation example 1. Thirteen grams of artificial bait for tobacco cutworm (Spodoptera litura) were placed in a polyethylene cup (diameter: 11 cm) and impregnated with 2 ml of the 500 ppm emulsion prepared by diluting the emulsifiable concentrates with water. Ten 4-instar larvae of Spodoptera litura were put in the polyethylene cup. After 6 days, the mortality of the larvae was examined.

[14] = Toxicity Test: acute oral LD50; settings: rat, in vivo, corn oil, fasted male 7-week old rats, after 7 days
Method: After subjecting the rats to a twenty-hour fasting, 0.1 ml of the diluted solution per 10 g weight was forcibly applied into the stomach of four male 7-week old rats. The rats were given food and water four hours after the application and thereafter regularly fed and watered, and kept in a cage. After 7 days, the mortality was examined for the rats and LD50 was calculated.

Compound	mortality at 500 ppm [2]	degree of damage of the wool muslin fabric [3]	mortality [3]	mortality at 3.5 ppm [4]	mortality at 50 ppm [5]	mortality at 500 ppm [6]	mortality at 500 ppm [7]	degree of damage of the wool muslin fabric [8]	mortality at 0.003 mg [8]	degree of damage ([9]; After 1 week)	degree of damage ([9]; After 2 weeks)	degree of damage ([9]; After 3 weeks)	degree of damage ([9]; After 5 weeks)	rate of knocked-down mosquitoes [10]	mortality at 500 µg/mL [11]	rate of knocked-down mosquitoes [12]	mortality at 500 µg/mL [13]	LD50 at 168 h [14]	further results
CCc1ccc(COC(=O)[C@@H]2[C@H](/C=C(\Cl)C(F)(F)F)C2(C)C)o1 (relative stereo) [(2), 5-ethyl-2-furfuryl (1RS,cis)-3-(Z-2-chloro-3,3,3-trifluoroprop-1-enyl)-2,2-dimethyl-cyclopropanecarboxylate]	100%	no damage	100%	≥ 90%	100%	≥ 90%	100%	no damage	100%	-	-	-	-	≥ 90%	100%	100%	100%		Mortality (%) ([1]; compound (2) 0.2 μg/female, piperonyl butoxide 0): 30%; Mortality (%) ([1]; compound (2) 0.2 + piperonyl butoxide 0.4 μg/female): 85%; Mortality (%) ([1]; compound (2) 0.2 + piperonyl butoxide 0.8 μg/female): 100%; Mortality (%) ([1]; compound (2) 0.2 + piperonyl butoxide 1.6 μg/female): 100%; Mortality (%) ([1]; compound (2) 0.2 + piperonyl butoxide 3.2 μg/female): 100%
CCCc1ccc(COC(=O)[C@@H]2[C@H](/C=C(\Cl)C(F)(F)F)C2(C)C)o1 (relative stereo) [(3), 5-propyl-2-furfuryl (1RS,cis)-3-(Z-2-chloro-3,3,3-trifluoroprop-1-enyl)-2,2-dimethylcyclopropanecarboxylate]	100%	no damage	100%	≥ 90%	100%	≥ 90%	100%	no damage	100%	-	-	-	-	≥ 90%	100%	100%	100%		
C=CCc1ccc(COC(=O)[C@@H]2[C@H](/C=C(\Cl)C(F)(F)F)C2(C)C)o1 (relative stereo) [(4), 5-allyl-2-furfuryl (1RS,cis)-3-(Z-2-chloro-3,3,3-trifluoroprop-1-enyl)-2,2-dimethylcyclopropanecarboxylate]	100%	no damage	100%	≥ 90%	100%	≥ 90%	100%	no damage	100%	-	-	-	-	≥ 90%	100%	100%	100%		
CC1(C)C(/C=C(\Cl)C(F)(F)F)C1C(=O)OCc1coc(Cc2ccccc2)c1 (stereo not shown) [A, reference compound]										+++	+++	+++	+++					< 50 mg/kg	
CC1(C)C(/C=C(\Cl)C(F)(F)F)C1C(=O)OCc1ccc(C(F)F)o1 (stereo not shown) [B, reference compound]										+++	+++	+++	+++						
C#CCc1ccc(COC(=O)C2C(/C=C(\Cl)C(F)(F)F)C2(C)C)o1 (stereo not shown) [C, reference compound]										+++	+++	+++	+++					< 100 mg/kg	

Reference: patent US6048892A, “Ester compound pesticide containing thereof” (Sumitomo Chemical Company, Limited, priority 1999, dated 2000)
